Experimental data taken from PubChem BioAssay (NCI).
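1) Cells in 96-well plates. 2) Compound, 48 h, 5 concentrations. 3) Linear interpolation between surrounding doses. 4) Unreached endpoint = highest concentration. Definition used: TGI = concentration required for complete inhibition of growth.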

What was measured:
Test in all cases: inhibition of tumour cell growth, NCI panel, 48 h
OVCAR-5 ovarian = test system: OVCAR-5 ovarian
M14 melanoma = test system: M14 melanoma
HOP-92 NSCLC = test system: HOP-92 NSCLC
NCI-H522 lung = test system: NCI-H522 lung
UACC-257 melanoma = test system: UACC-257 melanoma
LOX IMVI melanoma = test system: LOX IMVI melanoma
SNB-75 CNS = test system: SNB-75 CNS
A549 NSCLC = test system: A549 NSCLC
RPMI-8226 leukemia = test system: RPMI-8226 leukemia
SK-OV-3 ovarian = test system: SK-OV-3 ovarian
U251 CNS = test system: U251 CNS
EKVX NSCLC = test system: EKVX NSCLC
MCF7 breast = test system: MCF7 breast
NCI-H226 lung = test system: NCI-H226 lung
UO-31 renal = test system: UO-31 renal
K-562 leukemia = test system: K-562 leukemia
SNB-19 CNS = test system: SNB-19 CNS
HS 578T breast = test system: HS 578T breast
SR leukemia = test system: SR leukemia

| SMILES | TGI (OVCAR-5 ovarian) [µM] | TGI (M14 melanoma) [µM] | TGI (HOP-92 NSCLC) [µM] | TGI (NCI-H522 lung) [µM] | TGI (UACC-257 melanoma) [µM] | TGI (LOX IMVI melanoma) [µM] | TGI (SNB-75 CNS) [µM] | TGI (A549 NSCLC) [µM] | TGI (RPMI-8226 leukemia) [µM] | TGI (SK-OV-3 ovarian) [µM] | TGI (U251 CNS) [µM] | TGI (EKVX NSCLC) [µM] | TGI (MCF7 breast) [µM] | TGI (NCI-H226 lung) [µM] | TGI (UO-31 renal) [µM] | TGI (K-562 leukemia) [µM] | TGI (SNB-19 CNS) [µM] | TGI (HS 578T breast) [µM] | TGI (SR leukemia) [µM] |
| --- | --- | --- | --- | --- | --- | --- | --- | --- | --- | --- | --- | --- | --- | --- | --- | --- | --- | --- | --- |
| O=[N+]([O-])c1ccc(/C=N/n2c(CO)nc3ccccc32)o1 | 24.7 | 16.7 | 14.8 | 4.43 | 6.25 | 15.9 | 57.1 | 36.5 | 19.6 | 71.9 | 37.2 | 23.6 | 15.2 | 39.5 | 22.9 | 62.7 | 30.7 | 35.6 | – |
| COc1cc(Nc2cnc3cc(F)c(F)cc3n2)cc(OC)c1OC | > 100 | > 100 | > 100 | > 100 | > 100 | > 100 | > 100 | > 100 | – | > 100 | > 100 | > 100 | > 100 | > 100 | > 100 | – | > 100 | > 100 | – |
| N#CSC#Cc1ccc(C#CSC#N)cc1 | 34.9 | – | 26 | 29 | 33.8 | 34.5 | – | 33.7 | > 100 | 43 | 41.8 | 37.2 | 38.6 | 53.6 | 33.6 | > 100 | 47.7 | 48.8 | > 100 |
| O=C1OC[C@@H]2Cc3cc4c(cc3[C@H](c3ccc5c(c3)OCO5)[C@@H]12)OCO4 | > 25 | > 25 | – | – | > 25 | > 25 | – | > 25 | > 25 | – | > 25 | > 25 | > 25 | – | > 25 | > 25 | > 25 | – | > 25 |
| COc1ccc(C2S/C(=C\c3ccccc3O)C(=O)N2NC(=O)Cc2ccccc2)cc1 (configuration not stated) | > 100 | > 100 | > 100 | > 100 | > 100 | > 100 | > 100 | > 100 | > 100 | > 100 | > 100 | – | – | > 100 | > 100 | > 100 | – | – | > 100 |
| CC1CC(N)=Nc2ccccc2N1 (configuration not stated) | > 100 | > 100 | – | > 100 | > 100 | > 100 | > 100 | > 100 | > 100 | > 100 | > 100 | > 100 | – | > 100 | > 100 | > 100 | > 100 | > 100 | – |
| Clc1c(Cl)c(Cl)c2nn(C3CCCO3)nc2c1Cl (configuration not stated) | > 100 | > 100 | – | > 100 | > 100 | – | – | > 100 | – | > 100 | > 100 | > 100 | > 100 | > 100 | – | 98.3 | > 100 | 49.5 | > 100 |
| COc1ccc(C2CC(=O)CC(c3ccc(OC)cc3)C23C(=O)NC(=O)NC3=O)cc1 (configuration not stated) | > 100 | > 100 | 78.5 | 60.2 | > 100 | > 100 | 67.1 | – | – | – | > 100 | > 100 | > 100 | > 100 | > 100 | > 100 | > 100 | – | > 100 |
| CN(c1ccc(Cl)cc1)S(=O)(=O)c1ccc([N+](=O)[O-])cc1 | > 100 | > 100 | – | > 100 | > 100 | > 100 | > 100 | > 100 | > 100 | > 100 | > 100 | > 100 | > 100 | > 100 | > 100 | > 100 | > 100 | > 100 | – |
| CS(=O)(=O)Nc1ccc(N2Cc3cnc4ccc5[nH]ccc2c5c34)cc1 | 84.5 | 32.2 | 63.6 | 29.5 | 31.8 | 28.2 | – | > 100 | 48.1 | – | 36.5 | > 100 | > 100 | 42.2 | > 100 | 38.7 | 42 | > 100 | – |
| O=C(NCCCCCCNC(=O)c1cccc2ccccc12)Nc1cccc2ccccc12 | > 100 | > 100 | > 100 | > 100 | > 100 | > 100 | > 100 | > 100 | > 100 | – | > 100 | > 100 | > 100 | – | > 100 | > 100 | > 100 | > 100 | – |
| CCOC(=O)C1=CC(C)(C(=O)OCC)Nc2c(nc(OC)n(C)c2=O)N1 (configuration not stated) | > 10 | > 10 | > 10 | > 10 | > 10 | > 10 | > 10 | > 10 | > 10 | > 10 | > 10 | > 10 | > 10 | > 10 | > 10 | > 10 | > 10 | > 10 | – |
| CC(=O)OCCn1cnc2nc(Nc3ccccc3)nc(Cl)c21 | > 100 | – | 34.4 | > 100 | > 100 | > 100 | – | > 100 | > 100 | > 100 | > 100 | > 100 | > 100 | > 100 | – | > 100 | > 100 | > 100 | > 100 |
| O=C(O)c1n[nH]nc1Cl | > 100 | > 100 | – | > 100 | > 100 | > 100 | > 100 | > 100 | > 100 | > 100 | > 100 | > 100 | > 100 | > 100 | > 100 | > 100 | – | > 100 | – |
| N#C/C(C(=O)Nc1ccccc1)=C(/N)N1CCOCC1 | > 100 | > 100 | > 100 | – | > 100 | > 100 | > 100 | > 100 | > 100 | > 100 | > 100 | > 100 | > 100 | > 100 | > 100 | > 100 | > 100 | – | > 100 |
| CC(C)C1OC23CCCCC2C(C#N)(C#N)C1(C#N)C(=N)O3 (configuration not stated) | 47.5 | 29.8 | 35.1 | – | 45.9 | 54 | > 100 | > 100 | – | > 100 | 63.9 | 77.7 | 36.6 | > 100 | > 100 | > 100 | > 100 | 42.3 | – |
| COc1ccc(/C=C(/C(=O)c2ccc(Cl)cc2)N2C=CC=CC2=C(C#N)C#N)cc1OC | 32.6 | 11.4 | 13.4 | 0.953 | 17.2 | 8.3 | 20.3 | 30.4 | 8.59 | > 82.1 | 24.4 | 10.6 | 16.9 | 38.4 | 3.44 | – | 32.1 | 26.3 | – |
| CCC1(CC)SCc2nc3ccccc3n21 | > 100 | 70.5 | 61.2 | 94.4 | 71.9 | > 100 | 51.8 | > 100 | 65.7 | > 100 | > 100 | 73.7 | 93.7 | 88.8 | > 100 | 74.5 | > 100 | 82.9 | – |
| CCC(C)(C)/C(CC(O)(C(F)(F)F)C(F)(F)F)=N\O | > 100 | > 100 | > 100 | > 100 | – | > 100 | > 100 | > 100 | > 100 | > 100 | > 100 | > 100 | – | > 100 | > 100 | > 100 | > 100 | > 100 | > 100 |
| S=C(NCc1ccccc1)c1nc[nH]c1C(=S)NCc1ccccc1 | 21.7 | 20.7 | 12.3 | 21.3 | 23.4 | 17.1 | 19.5 | 15.1 | 35.6 | 28.5 | 18.4 | 17 | – | 8.1 | – | 29.7 | 18.6 | – | – |
| CCOC(=O)C1=C(C)N(C)C23OC4(C(=O)OC)CC2c2ccccc2C1N3C4=O (configuration not stated) | > 100 | > 100 | > 100 | > 100 | > 100 | > 100 | > 100 | > 100 | > 100 | > 100 | > 100 | > 100 | > 100 | > 100 | > 100 | > 100 | > 100 | – | > 100 |
| Cc1cc2nc3c(C#N)c(-c4ccccc4)cc(Nc4ccc(Cl)cc4)n3c2cc1C | > 100 | > 100 | – | > 100 | > 100 | > 100 | > 100 | > 100 | > 100 | > 100 | > 100 | > 100 | > 100 | > 100 | > 100 | – | > 100 | – | – |
| CC(=O)OCc1cc(CCC(=O)NCCNc2c3ccccc3nc3ccccc23)cc(COC(C)=O)c1O[Si](C)(C)C(C)(C)C | 29.1 | 23.2 | 22.7 | 21.8 | 14.6 | 3.58 | – | 24.4 | 5.77 | 27.7 | 19.7 | 36.1 | 4.57 | 4.72 | 31.1 | 6.49 | 31.2 | 13.9 | 4.91 |
| CCSc1n/c(=C\c2ccco2)c2nnnn12 | > 100 | > 100 | > 100 | > 100 | > 100 | > 100 | > 100 | > 100 | > 100 | > 100 | > 100 | > 100 | > 100 | > 100 | > 100 | – | > 100 | > 100 | – |
| O=C(CC(=O)Nc1cccc(C(=O)O)c1)Nc1cccc(C(=O)O)c1 | – | > 100 | > 100 | > 100 | > 100 | > 100 | – | > 100 | > 100 | – | > 100 | > 100 | > 100 | > 100 | > 100 | > 100 | > 100 | > 100 | – |
| c1ccc2sc(C3(N4CCCC4)CCCCCC3)cc2c1 | 25.2 | 31 | 30 | 33.3 | 31 | 33.2 | 34.5 | 43 | – | 35 | 30.9 | 33 | 33.2 | 40.3 | 26 | 38.5 | 29.9 | – | 44.1 |
| O=Cc1cc2c(cc1-c1c(C=O)ccc3c1OCO3)OCO2 | – | > 10 | > 10 | – | > 10 | > 10 | > 10 | > 10 | > 10 | > 10 | > 10 | – | > 10 | – | – | > 10 | > 10 | > 10 | > 10 |
| CN1C(=O)N/C(=C\c2ccc(S(=O)(=O)NN)cc2)C1=O | > 100 | > 100 | > 100 | – | > 100 | > 100 | > 100 | > 100 | > 100 | > 100 | > 100 | > 100 | > 100 | > 100 | > 100 | > 100 | > 100 | > 100 | – |
| CC(C)(C)OC(=O)NCC(O)CNC(=O)OC(C)(C)C | > 100 | > 100 | > 100 | > 100 | > 100 | > 100 | – | > 100 | > 100 | > 100 | > 100 | > 100 | > 100 | > 100 | > 100 | > 100 | > 100 | > 100 | > 100 |
